Laboratory results as given in patent publication US11547957B2, “Method of maintaining narrow residence time distributions in continuous flow systems” (EMD Millipore Corporation, priority 2017, dated 2023).

Test system: Phi6 bacteriophage virus
Assay: Static detergent-based virus inactivation, infectivity by plaque assay
Assay type: cell-based
Conditions: mAb 15 mg/mL, 22-25° C.; for Time to Complete Inactivation: Phi6
Method: The purpose of this study was to examine detergent-based virus inactivation kinetics. In this representative experiment, two different concentrations (0.1% and 1.0% v/v) of a detergent, Triton X-100 were used to inactivate a bacteriophage virus, Phi6. The objective was to determine the exposure time required for complete inactivation.
A monoclonal antibody was purified by standard Protein A chromatography and prepared at a concentration of 15 mg/mL. The virus spike was added and vortexed to ensure a well-mixed system. The Phi6 target spike level was 1×10^8 pfu/mL. Detergent was added to reach the desired concentrations of 0.1% and 1.0% v/v. At various time points, a sample was removed and quenched by adding it to buffer at a 1:1000 dilution ratio. The tubes were vortexed after the detergent addition. These experiments were carried out at room temperature, 22-25° C. Control samples at the initial and final time points were also analyzed. The control samples were diluted similarly to the actual samples using the background buffer.

**Q.** For Triton X-100, which “Time to Complete Inactivation” value (0.1% v/v Triton X-100) is on record?
**A.** ≤1 min

**Q.** What about the “Time to Complete Inactivation” value (0.1% v/v Triton X-100, listed as Triton X100) of the same substance?
**A.** ≤ 1 min

**Q.** And the “Phi6 LRV” value (0.1% v/v Triton X-100, inactivation time 1 min)?
**A.** ≥5.2

**Q.** What about the “Phi6 LRV” value (0.1% v/v Triton X-100, inactivation time 2 min) of the same substance?
**A.** ≥5.2

**Q.** What about the “Phi6 LRV” value (0.1% v/v Triton X-100, inactivation time 3 min) of the same substance?
**A.** ≥5.2

**Q.** What about the “Phi6 LRV” value (0.1% v/v Triton X-100, inactivation time 4 min) of the same substance?
**A.** ≥5.2

**Q.** What about the “Phi6 LRV” value (0.1% v/v Triton X-100, inactivation time 5 min) of the same substance?
**A.** ≥5.2

**Q.** And the “Phi6 LRV” value (0.1% v/v Triton X-100, inactivation time 15 min)?
**A.** ≥5.2

**Q.** What about the “Phi6 LRV” value (0.1% v/v Triton X-100, inactivation time 30 min) of the same substance?
**A.** ≥5.2

**Q.** What about the “Time to Complete Inactivation” value (1.0% v/v Triton X-100) of the same substance?
**A.** ≤1 min

**Q.** What about the “Time to Complete Inactivation” value (1.0% v/v Triton X-100, listed as Triton X100) of the same substance?
**A.** ≤ 1 min

**Q.** And the “Phi6 LRV” value (1.0% v/v Triton X-100, inactivation time 1 min)?
**A.** ≥6.2

**Q.** What about the “Phi6 LRV” value (1.0% v/v Triton X-100, inactivation time 2 min) of the same substance?
**A.** ≥6.2

**Q.** And the “Phi6 LRV” value (1.0% v/v Triton X-100, inactivation time 3 min)?
**A.** ≥6.2

**Q.** And the “Phi6 LRV” value (1.0% v/v Triton X-100, inactivation time 4 min)?
**A.** ≥6.2

**Q.** What about the “Phi6 LRV” value (1.0% v/v Triton X-100, inactivation time 5 min) of the same substance?
**A.** ≥6.2

**Q.** And the “Phi6 LRV” value (1.0% v/v Triton X-100, inactivation time 15 min)?
**A.** ≥6.2

**Q.** What about the “Phi6 LRV” value (1.0% v/v Triton X-100, inactivation time 30 min) of the same substance?
**A.** ≥6.2
